In the NIST ThermoML archive (doi:10.1021/acs.jced.6b00168):
“And” between values parts separate entries of the source, which are not always exact repeats. Equal entries are not always repeated.

Assays:
[1] = 298.15 K; 100 kPa; Liquid; Frequency=3 MHz; Sing-around technique in a fixed-path interferometer
[2] = mn = molality of the nth substance listed, in mol/kg; conditions: 100 kPa, Liquid; for speed of sound: Frequency=3 MHz, Sing-around technique in a fixed-path interferometer; for mass density: Vibrating tube method

O [water]
Conditions | speed of sound [m/s]
[1] | 1495.9

O=C(N[C@H](CO)[C@H](O)c1ccc([N+](=O)[O-])cc1)C(Cl)Cl + O
[2]
Conditions | mass density, 288.15 K [kg/m3] | mass density, 298.15 K [kg/m3] | mass density, 308.15 K [kg/m3] | mass density, 318.15 K [kg/m3] | speed of sound, 288.15 K [m/s] | speed of sound, 298.15 K [m/s] | speed of sound, 308.15 K [m/s] | speed of sound, 318.15 K
m1 = 0.0005 | 999.273 | 997.209 | 994.205 | 990.372 | 1466.9 | 1496 | 1519.6 | 1536.2 m/s
m1 = 0.001 | 999.429 | 997.363 | 994.356 | 990.522 | 1467 | 1496.1 | 1519.7 | 1536.4 m/s
m1 = 0.002 | 999.643 | 997.576 | 994.56 | 990.713 | 1467.1 | 1496.2 | 1519.9 | 1536.8 m/s and 1536.5 m/s
m1 = 0.004 | 999.922 | 997.847 | 994.831 | 990.992 | 1467.5 | 1496.7 | 1520.2 | 1536.8 m/s
